Consider two molecules from patent US6503947B1, “Method of treating cytotoxic damage” (Brigham and Women's Hospital, priority 1998, dated 2003).

One data set has as its target complement C3 (Homo sapiens, UniProt P01024). The data set is described as follows: complement C3 inhibitory IC50 of SHA. Type of data set: biochemical.
Data set [1] in a line: Pharmacokinetics of SHA in blood and brain after i.p. injection. Type of data set: in vivo, Sprague-Dawley rats. To be noted: 400 mg/kg i.p., rat. On the procedure:
SHA (400 mg/kg) was injected intraperitoneally (i.p.) into Sprague-Dawley rats. At fixed time intervals after injection, blood samples were collected, and perfused brain was removed and homogenized. Acidified blood and brain samples were extracted in ethyl acetate. SHA was quantitated by reverse phase HPLC at 310 nm, and compared to known amounts of standards that had been added to blood or brain tissue as shown in FIG. 4.
The time of SHA injection after the onset of ischemia or reperfusion can be systematically varied to determine other ranges in which therapeutic intervention is available using this drug.

Data set [2] deals with mice subjected to middle cerebral artery occlusion. The experiment in a line: Middle cerebral artery (MCA) occlusion stroke model, infarct volume with SHA. Type of data set: in vivo, C57BL/6 mice. To be noted: 400 mg/kg i.p. twice (at occlusion and 1.5 h later), sacrifice at 24 hours, mean±SEM, n=3. As to the method:
FIG. 5 is a graph depicting the infarct volume of C57BL/6 mice subjected to middle cerebral artery occlusion and treated with saline (Control, n=3) or SHA (SHA, n=3).
SHA was tested for its ability to prevent cytotoxic damage by using the middle cerebral artery (MCA) occlusion stroke model (Longa et al., supra). Briefly, this system involves anesthetizing mice with isoflurane and then maintaining the body temperature of the mice at 36±1° C. A 6.0 monofilament nylon suture with silicone-coated tip was then advanced into the internal carotid artery about 9 mm via the external carotid artery. Immediately after the filament was secured, SHA (400 mg/kg i.p.) or vehicle (normal saline) was injected. At 1.5 hours after the first injection, a second i.p. injection was given to the animal. 2 hours later the animals were re-anesthetized and the filament was removed to allow reperfusion. Cerebral blood flow, blood pressure, blood gases, pH, and serum glucose were monitored in these studies. At 24 hours the animals were sacrificed, brains removed and 1 mm thick brain section are cut on a vibratome. The brain slices were stained with 2% triphenyltetrazolium choloride. The infarct volume was obtained as described in Swanson et al., supra with results being (mean+SEM, n=3 in each group) 62.6±34.2 mm^3 in the vehicle-treated group versus 6.1±6.0 mm^3 in the SHA-treated group.

Data set [3] shares this test system. The experiment in a line: Intravenous injection of tPA into tPA-deficient or wild-type mice with intraluminal filament MCA occlusion. In kind it is in vivo, mice (C57BL/6 or SV129). On the procedure: Wild-type and tPA-deficient male mice (on C57Black/6 and SV129 backgrounds) weighing 23-27 grams were housed in a 12 hour light/dark cycle and permitted food and water intake ad libitum. Transient ischemia/reperfusion was performed using the intravascular filament model to occlude the middle cerebral artery unilaterally for 2 or 3 hours followed by reperfusion for the remainder of the 24 hour period as described in Longa et al., Stroke 20, 84-91 (1989) and Soriano. et al. Ann. Neurol. 39, 618-624 (1996). Briefly, under isoflurane anesthesia, a 6.0 nylon filament coated with silicone was threaded into the lumen of the middle cerebral artery of mice (C57Black/6 and SVI29 backgrounds) to produce transient ischemia. After 2 or 3 hours of occlusion, the filament was gently withdrawn to allow tissue reperfusion. Body temperature was maintained at 36.5±1.0° C. […] Animals were sacrificed 24 hours after the onset of the insult as described in Huang et al. Science 265, 1883-1885 (1994) and Soriano, supra. Infarct volumes were digitally quantified on 1.5 mm thick coronal sections after correction for edema by measuring TTC staining, as described in Soriano, supra, Bederson et al., Stroke 17,472-476 (1986); Swanson et al., J. Cereb. Blood Flow Metab. 10, 290-293 (1990), Lin et al., Stroke 24, 117-121 (1993); Zhang, et al., Neurology 44, 1747-1751 (1994); and Chopp et al. Stroke 25, 869-876 (1994)). Infarct volume decreased from 116±8 mm^3 in control wild-type mice to 69±7 mm^3 in tPA-deficient mice (mean±s.e.m., n=19 mice), as shown in FIG. 1. Under these conditions, there is no thrombosis at the occluded site, so the absence of tPA would not contribute to damage via an enhanced clotting cascade.
To determine the effect of intravenous injection of tPA into tPA-deficient or wild-type mice (C57BL/6 or SV129), intravenous tPA was administered intravenously, 10% initially by bolus, followed by constant infusion over twenty to thirty minutes at 0.9-1.0 mg/kg (similar to rt-PA Stroke Study Group, N. EngL J. Med. 333, 1581-1587 (1995) and Hacke. et al. JAMA 274, 1017-1025 (1995). The formula for the carrier used to dilute tPA was obtained from the manufacturer (Genentech, San Francisco, Calif.) and was used as one of the control injections. The diluent consisted of 0.02 M arginine phosphate at pH 7.3 with 0.001% Tween. […] In wildtype, but not tPA deficient mice, ischemia induced an increase in tPA activity, as assessed by histological zymography. Briefly, wild-type or tPA deficient mice were subjected to 2 hours of focal ischemia. After 10 minutes of reperfusion, the animals were sacrificed and their brains frozen as described previously (Tsirka et al., Nature 377, 340-344 (1995)). Then, 12 μm consecutive coronal brain cryostat sections were subjected to histological zymography to visualize tPA activity with or without amiloride (1 mM, a specific urokinase [uPA] inhibitor) (Sappino et al J. Clin. Invest. 92, 679-685 (1993) and Rosenberg et al., Cereb. Blood Flow Metab. 16, 360-366 (1996)). The sections were overlaid with a milk-agarose substrate matrix containing 50 ug/ml of purified human plasminogen and 1 mg/ml amiloride. […]
Regional cerebral blood flow was also monitored by the laser Doppler flowmetry technique as described in Dimagl et al J. Cereb. […] Briefly, the initial reading of regional Cerebral Blood Flow (rCBF) was assigned a value of 100% and subsequent readings were expressed relative to this value. […]

Chain of complement C3 (P01024 23-1663, species assumed): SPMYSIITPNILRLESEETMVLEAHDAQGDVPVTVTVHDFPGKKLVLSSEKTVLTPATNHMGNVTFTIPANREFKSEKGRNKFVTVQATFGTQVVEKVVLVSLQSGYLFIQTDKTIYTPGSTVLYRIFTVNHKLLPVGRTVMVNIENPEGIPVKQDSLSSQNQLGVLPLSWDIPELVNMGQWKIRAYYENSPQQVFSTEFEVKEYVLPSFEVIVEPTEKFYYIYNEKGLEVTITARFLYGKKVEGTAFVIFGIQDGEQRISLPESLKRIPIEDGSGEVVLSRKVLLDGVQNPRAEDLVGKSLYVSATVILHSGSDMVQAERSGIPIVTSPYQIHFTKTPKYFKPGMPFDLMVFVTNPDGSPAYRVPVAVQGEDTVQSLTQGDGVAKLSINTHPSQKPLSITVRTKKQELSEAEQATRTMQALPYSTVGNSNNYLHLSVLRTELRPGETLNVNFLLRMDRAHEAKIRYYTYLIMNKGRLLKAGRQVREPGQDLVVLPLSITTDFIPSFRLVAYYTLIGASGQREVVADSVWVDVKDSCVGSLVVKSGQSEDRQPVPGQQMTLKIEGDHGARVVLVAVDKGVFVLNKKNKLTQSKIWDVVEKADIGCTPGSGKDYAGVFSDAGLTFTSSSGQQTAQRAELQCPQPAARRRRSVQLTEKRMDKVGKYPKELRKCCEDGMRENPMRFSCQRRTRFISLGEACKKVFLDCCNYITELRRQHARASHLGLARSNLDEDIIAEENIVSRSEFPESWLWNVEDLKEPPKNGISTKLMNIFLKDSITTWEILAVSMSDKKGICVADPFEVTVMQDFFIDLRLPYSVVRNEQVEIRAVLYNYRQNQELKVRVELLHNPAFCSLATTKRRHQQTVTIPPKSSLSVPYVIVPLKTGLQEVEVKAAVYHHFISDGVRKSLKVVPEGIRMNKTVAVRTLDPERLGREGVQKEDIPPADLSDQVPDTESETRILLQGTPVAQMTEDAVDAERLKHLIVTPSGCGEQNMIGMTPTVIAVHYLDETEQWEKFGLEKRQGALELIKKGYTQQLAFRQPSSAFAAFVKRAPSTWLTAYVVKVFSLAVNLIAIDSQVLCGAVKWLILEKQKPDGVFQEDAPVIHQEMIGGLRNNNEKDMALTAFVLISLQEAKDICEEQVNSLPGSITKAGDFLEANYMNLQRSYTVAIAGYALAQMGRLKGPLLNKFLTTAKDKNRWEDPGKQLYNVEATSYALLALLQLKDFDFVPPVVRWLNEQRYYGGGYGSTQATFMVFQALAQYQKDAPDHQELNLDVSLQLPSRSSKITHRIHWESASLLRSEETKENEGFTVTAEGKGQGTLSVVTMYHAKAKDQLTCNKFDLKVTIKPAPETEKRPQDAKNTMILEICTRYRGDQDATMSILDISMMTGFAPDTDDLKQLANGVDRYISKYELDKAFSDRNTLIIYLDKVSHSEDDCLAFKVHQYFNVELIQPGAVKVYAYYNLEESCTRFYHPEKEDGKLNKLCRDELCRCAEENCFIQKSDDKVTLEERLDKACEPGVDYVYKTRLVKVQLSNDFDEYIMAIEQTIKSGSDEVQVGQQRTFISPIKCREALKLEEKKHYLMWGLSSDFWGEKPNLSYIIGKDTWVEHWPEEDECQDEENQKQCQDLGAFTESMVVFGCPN

What is called IC50 is the concentration that inhibits the measured activity by half. A high value points to lower potency. On complement C3, `O=C(NO)c1ccccc1O` [SHA, salicylhydroxamic acid] gave an IC50 of 8.3 µM. In addition, on complement C3 (equivalent of the IC50 expressed per g brain), the “complement C3 inhibitory IC50, equivalent brain concentration” value was determined as 0.0013 mg SHA/g brain. For the same molecule, the “ability to cross the blood-brain barrier” value in data set [1] (normal brain) is recorded as “able to cross the blood-brain barrier quite effectively”. Also, in data set [1] (blood and brain), the “time after injection during which SHA concentration in blood and brain exceeds the complement C3 IC50” value came out at 2 h; the “time of peak concentration in blood and brain after drug administration” value is “about 30 minutes”. Moreover, the infarct volume in data set [2] is on record as 6.1±6.0 mm^3.

Regarding “tPA: serine protease tissue plasminogen activator, thrombolytic agent, commercially available from Genentech”, in data set [3] (tPA 0.9-1.0 mg/kg i.v., all animals), the “hemorrhage or other bleeding diathesis at postmortem examination” value is recorded as “No hemorrhage or other bleeding diathesis occurred”. For the same molecule, in data set [3] (tPA-deficient mice, intravenous exogenous tPA), the “entry of tPA activity into the brain (histological zymography)” value is on record as “apparent entry of tPA activity into the brain”. Also, the “increase in size of cerebral infarction” value in data set [3] (tPA-deficient mice, tPA 0.9-1.0 mg/kg i.v.) is “near doubling of the damage”; in data set [3] (wild-type mice, tPA 0.9-1.0 mg/kg i.v., 2 hour occlusion), 20-35%. Further, the “effect on size of the stroke with large cerebral infarcts” value in data set [3] (wild-type mice, 3 hours of vascular occlusion, versus control animals not receiving tPA) is on record as “did not enhance the size of the stroke”.
